In paper PMC5786306, “An AKAP-Lbc-RhoA interaction inhibitor promotes the translocation of aquaporin-2 to the plasma membrane of renal collecting duct principal cells” (PLoS ONE, 2018):

Columns and labels:
[1] = tested on: RhoA activation by other RhoGEFs (p63RhoGEF, Duet, Trio, LARG, Ost1, PDZRhoGEF and others) in HEK293 cells; assay: SRE luciferase reporter assay, other RhoGEFs expressed; format: cell-based, human; settings: Scaff10 50 μM
Method: Luciferase reporter gene assays were performed with the Dual Luciferase Reporter Assay System (Promega) according to manufactures protocol and as previously reported. In brief, HEK293 cells were seeded and co-transfected with the indicated plasmids together with pSRE.L reporter plasmid encoding firefly luciferase (kindly provided from Dr J. Mao and Dr. D. Wu, Rochester, NY) and pRL-TK control vector (Promega, Mannheim, Germany) encoding renilla luciferase. The transfected cells were further cultured in DMEM with 0.5% FCS for 24 h, lysed with passive lysis buffer (Promega). Luciferase activities was measured an Envision Instrument (Perkin Elmer, Rodgau, Germany) in white 96-well plates. […] In Western blots, the protein was detected with primary polyclonal antibody (rabbit; Gramsch, 1:1000). […] AKAP-Lbc was detected with a specific anti-AKAP-Lbc antibody (Abcam; #ab99377; 1:1000). […]
Fig 7 Scaff10-8 inhibits the AKAP-Lbc-mediated activation of RhoA in cells. […] Statistically significant differences were determined applying one-way ANOVA with posthoc Bonferroni. […]
in luciferase activity induced by other GEFs. n=3; statistically significant differences were not found, as confirmed by statistical analysis using ANOVA. […] The fraction of active RhoA was determined using Rhotekin pulldown assays as described. […]

[2] = tested on: AQP2 localization and F-actin in primary IMCD cells; assay: Immunofluorescence microscopy of AQP2 and F-actin in primary IMCD cells; format: cell-based, rat
Description: Primary rat renal inner medullary collecting duct (IMCD) cells were obtained and cultured as previously described. AQP2 was detected with specific rabbit (H27 antibody) and secondary Cy3-coupled antibodies, and F-actin was visualized with Alexa Fluor 647-Phalloidin by laser scanning microscopy (LSM780; Zeiss Jena, Germany) as described.
Fig 8 Scaff10-8 promotes the redistribution of AQP2 to the plasma membrane of primary IMCD cells, which is independent of cAMP elevation and associated with depolymerization of F-actin. (A) Upper panel. IMCD cells were treated with DMSO (1%; control), the solvent of Scaff10-8, or forskolin (10 μM, 30 min) to stimulate cAMP synthesis. Lower panels: The cells were treated for 1 hour with Scaff10-8 (30 μM) alone (control) or with Scaff10-8 and forskolin. Forskolin (10 μM) was added for the final 30 min of Scaff10-8 incubation. AQP2 (green) was detected with specific primary and Cy3-coupled secondary antibodies, F-actin (red) with Alexa Fluor 647-Phalloidin and nuclei with DAPI (blue). Signals were visualized using a laser scanning microscope. Representative images are shown. n = 3. The magnified views were derived from the indicated boxes. (B) The signal intensities arising from intracellular and plasma membrane AQP2 were recorded, related to nuclear signal intensities, and the ratios of plasma membrane to intracellular fluorescence signal intensities were calculated (n = 30 cells per condition). Ratios > 1 indicate a predominant localization of AQP2 at the plasma membrane. Statistically significant differences were calculated using one-way ANOVA with posthoc Bonferroni. Mean ± SEM; *, p ≤ 0.05; *** p ≤ 0.001.

With `COc1ccc(-c2coc3cc4oc(=O)c(C)c(C)c4cc23)cc1` [Scaff10, 3-(4-Methoxyphenyl)-5,6-dimethyl-furo[3,2-g]chromen-7-one] the “luciferase activity induced by other GEFs” value [1] was “does not affect”.

In the case of `COc1ccc(-c2coc3cc4oc(=O)c(CCC(=O)O)c(C)c4cc23)cc1` [Scaff10-8, 3-[3-(4-Methoxyphenyl)-5-methyl-7-oxo-furo[3,2-g]chromen-6-yl] propanoic acid], the “effect on forskolin-induced redistribution of AQP2” value ([2]; 30 μM, 1 h plus forskolin) is reported as “did not enhance the forskolin-induced redistribution”, the F-actin ([2]; Scaff10-8 30 μM alone, forskolin alone) is reported as “F-actin also decreased” and the “localization of AQP2” value ([2]; Scaff10-8 30 μM, 1 h, no forskolin, forskolin 10 μM, 30 min) is reported as “caused the translocation of AQP2 to the plasma membrane”. For the same molecule, the “effect of forskolin on F-actin” value ([2]; Scaff10-8 plus forskolin) was “did not influence”.
